# Like-named read-outs stand apart in the source and are kept apart here.
# Assays:
# OATP1B1 = test system: OATP1B1; parameters: method as in earlier work; details: in vitro; bracket not explained in the table; ref 30,43-55 and in-house data from Merck & Co.; cited from earlier work
# OATP1B3 = test system: OATP1B3; parameters: method as in earlier work; details: in vitro; ref 30,43-55 and in-house data from Merck & Co.; cited from earlier work
# [1] = cited from earlier work
# rMrp2 = rMrp2 (Rattus norvegicus, UniProt Q63120); assay type: in vivo; parameters: from tissue; host or cells: liver of living male Wistar rats (Charles River Laboratories); details: for Simple Effect Size (95% CI) kbh: gadoxetate biliary efflux, control − treatment, positive = decrease, site G2
# From the text: The tracer-kinetic model was developed to enable estimation of rate constants of hepatobiliary efflux from DCE-MRI profiles in individual animals. In this approach, the liver was assumed to consist of two compartments, the extracellular space (e) and the hepatocytes (h). Since water exchanges rapidly between those spaces, the change in relaxation rate was a weighted average (Equation (4)). (4) ΔR1(t)=r1,e·ve·ce(t)+r1,h·vh·ch(t)
# The proportionality constant, r1,τ [L⋅mmol^−1⋅s^−1] , is the relaxivity of the contrast agent for the compartment τ (extracellular space, e or hepatocytes, h) at the respective field strength, while vτ [mL/mL tissue] is the volume fraction of the compartment τ . Previously measured ex vivo r1,tau values for gadoxetate were used in this work, as per. The underlying assumptions of the PBPK and tracer-kinetic models, relating to physiological volumes and perfusion, are consistent, despite different parameterizations according to the purpose of each model. For example, Vliv,extr in the PBPK model is defined as an absolute volume (units = L; sum of liver plasma and interstitial volumes), while in the tracer-kinetic model, ve is a volume fraction (dimensionless), defined as Vliv,extr/Vliver , where Vliver is the total liver volume. While some analogy can be drawn between CLactive […], and CLbiliary and kbh, the interpretations are distinct. For example, the operating concentrations of the PBPK parameters CLactive […], and CLbiliary are the unbound concentrations of gadoxetate in plasma and hepatocytes, while the tracer-kinetic model is parameterized with respect to the total concentration of gadoxetate.
# Since ce(t) is the input to the hepatocytes, and no backflux from hepatocytes to extracellular space is assumed, Equation (5) can be derived. (5) vh·ch(t)=e^−t/Th∗khe·ce(t) where Th is the mean transit time of gadoxetate in the hepatocytes [min] , and * is convolution. The extracellular space is assumed to be in equilibrium with the blood pool and therefore the concentration ce(t) is proportional to the concentration cp(t) in the plasma of the feeding artery, i.e., ce(t) = (1 − E)·cp(t), where E is the extraction fraction of gadoxetate in the liver. Combining this assumption with Equations (4) and (5), and using (1 − E)·khe = E·Fp, with Fp being the apparent plasma flow into the liver [mL/min/mL tissue volume] , gives Equation (6), the operational equation for gadoxetate DCE-MRI in the liver. (6) ΔR1(t)=(1−E)·ve·r1,p·cp(t)+E·Fp·r1,h ·e^−t/Th ∗cp(t)
# The rate constants were derived as K^trans = E·Fp, khe = E·Fp/(1 − E), and kbh = vh/Th, with a literature value for vh. The plasma concentrations cp(t) were not reliably measured in small animals due to the small diameter of the main vessels compared to the resolution of the measurement. […] Therefore, the source term cp(t) was derived from a two-compartment pharmacokinetic model for gadoxetate (see Supplementary Material, Section S5), and a step function as input in the blood compartment. The parameters kbh and khe were fitted to the liver data using a model implementation in Python. For each rat considered in these studies, the rate constants K^trans, khe, and kbh were calculated, in both control and inhibitory phases. The rate constants of the control and inhibitory phases were compared via calculation of simple (unstandardized) effect sizes (i.e., simple effect size = μcontrol − μtreatment, where μ is the mean average of all subjects) at the 95% confidence level. Statistical significance was assessed through a two-sided paired t-test, with p < 0.05 considered significant.
# [2] = fraction unbound in plasma; cited from earlier work
# Chain of rMrp2 (Q63120 whole entry): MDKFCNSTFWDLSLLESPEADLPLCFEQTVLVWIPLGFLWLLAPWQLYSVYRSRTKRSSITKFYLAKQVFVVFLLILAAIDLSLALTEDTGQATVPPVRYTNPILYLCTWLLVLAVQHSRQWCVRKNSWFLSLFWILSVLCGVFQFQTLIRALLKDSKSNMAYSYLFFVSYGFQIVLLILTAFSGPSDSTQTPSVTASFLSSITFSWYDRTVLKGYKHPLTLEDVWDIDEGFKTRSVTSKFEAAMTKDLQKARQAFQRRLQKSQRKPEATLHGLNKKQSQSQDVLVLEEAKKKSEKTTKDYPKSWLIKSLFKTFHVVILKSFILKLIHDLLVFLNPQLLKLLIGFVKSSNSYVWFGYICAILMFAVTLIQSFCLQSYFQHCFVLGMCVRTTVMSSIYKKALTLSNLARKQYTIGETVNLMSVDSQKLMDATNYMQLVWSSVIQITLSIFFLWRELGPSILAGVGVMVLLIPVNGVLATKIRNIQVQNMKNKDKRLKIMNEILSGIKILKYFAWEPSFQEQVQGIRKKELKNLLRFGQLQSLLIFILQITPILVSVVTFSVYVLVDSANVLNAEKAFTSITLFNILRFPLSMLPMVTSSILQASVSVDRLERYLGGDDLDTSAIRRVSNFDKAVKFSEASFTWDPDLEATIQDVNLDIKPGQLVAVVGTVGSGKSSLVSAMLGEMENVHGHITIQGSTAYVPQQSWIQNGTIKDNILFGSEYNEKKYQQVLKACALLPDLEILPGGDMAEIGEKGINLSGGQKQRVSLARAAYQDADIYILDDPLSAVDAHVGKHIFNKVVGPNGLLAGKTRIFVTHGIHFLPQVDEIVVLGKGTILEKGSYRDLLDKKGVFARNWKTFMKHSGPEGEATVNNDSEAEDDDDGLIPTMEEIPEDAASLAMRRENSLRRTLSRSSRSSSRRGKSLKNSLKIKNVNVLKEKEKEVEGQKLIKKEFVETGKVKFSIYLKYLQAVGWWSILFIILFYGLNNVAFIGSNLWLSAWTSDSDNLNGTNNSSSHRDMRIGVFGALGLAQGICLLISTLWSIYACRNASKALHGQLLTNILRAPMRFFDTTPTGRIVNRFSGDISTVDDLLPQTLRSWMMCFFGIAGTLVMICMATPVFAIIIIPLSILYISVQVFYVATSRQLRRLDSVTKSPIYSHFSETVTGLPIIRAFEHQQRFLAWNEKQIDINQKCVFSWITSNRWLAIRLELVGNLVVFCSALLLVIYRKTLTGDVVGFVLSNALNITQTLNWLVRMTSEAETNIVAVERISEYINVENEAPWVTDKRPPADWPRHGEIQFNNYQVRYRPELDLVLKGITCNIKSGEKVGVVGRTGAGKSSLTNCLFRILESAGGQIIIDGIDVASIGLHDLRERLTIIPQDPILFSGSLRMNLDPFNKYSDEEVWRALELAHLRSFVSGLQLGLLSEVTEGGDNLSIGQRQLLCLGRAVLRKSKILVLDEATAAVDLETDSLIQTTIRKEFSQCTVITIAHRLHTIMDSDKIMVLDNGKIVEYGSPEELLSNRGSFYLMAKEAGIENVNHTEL
structure (smiles),measurement,setting,value
C=C[C@@H]1C[C@]1(NC(=O)[C@@H]1C[C@@H](Oc2ncc(OC)c3ccc(Cl)cc23)CN1C(=O)[C@@H](NC(=O)OC(C)(C)C)C(C)(C)C)C(=O)NS(=O)(=O)C1CC1 [Asunaprevir],IC50,OATP1B1,0.55 µM
same,IC50,OATP1B3,0.65 µM
same,Cmax,"[1]; human plasma, daily dose 200 mg (asunaprevir), read-out: Cmax (µM) [Daily Dose]",0.76 µM
same,decrease in gadoxetate kbh,"rMrp2; rat, asunaprevir 5 mg/kg iv",31%
COc1ccccc1Oc1c(NS(=O)(=O)c2ccc(C(C)(C)C)cc2)nc(-c2ncccn2)nc1OCCO [Bosentan],IC50,OATP1B1,6.6 µM
same,IC50,OATP1B3,5.2 µM
same,Cmax,"[1]; human plasma, daily dose 250 mg, read-out: Cmax (µM) [Daily Dose]",3.3 µM
same,fu,[2],<0.02
same,Simple Effect Size (95% CI) kbh,rMrp2; bosentan 4–6 mg/kg iv,"0.02 (−0.02, 0.07) mL/min/mL liver"
CCc1ccc(CCOc2ccc(CC3SC(=O)NC3=O)cc2)nc1 (stereo not shown) [Pioglitazone],IC50,OATP1B3,3.41 µM
same,Cmax,"[1]; human plasma, daily dose 30 mg, read-out: Cmax (µM) [Daily Dose]",4.8 µM
same,fu,[2],<0.01
same,decrease in gadoxetate kbh,"rMrp2; rat, pioglitazone 0.4 mg/kg iv",19%
CO[C@H]1/C=C/O[C@@]2(C)Oc3c(C)c(O)c4c(O)c(c(/C=N/N5CCN(C)CC5)c(O)c4c3C2=O)NC(=O)/C(C)=C\C=C\[C@H](C)[C@H](O)[C@@H](C)[C@@H](O)[C@@H](C)[C@H](OC(C)=O)[C@@H]1C [Rifampicin],IC50,OATP1B1,1.9 µM
same,Ki,OATP1B1,0.67 µM
same,IC50,OATP1B3,0.11 µM
same,Cmax,"[1]; human plasma, daily dose 600 mg, read-out: Cmax (µM) [Daily Dose]",0.85 µM
same,Cmax,"[1]; human, ref supplement [17], read-out: typical maximum plasma concentration (Cmax) in clinical studies",4 to 20 µM
same,fu,[2],0.2
same,Simple Effect Size (95% CI) kbh,"rMrp2; ** p < 0.01, rifampicin 2 mg/kg iv",0.07 mL/min/mL liver
"CCOc1ccc(C[C@@H](CN(CCN(CC(=O)[O-])CC(=O)[O-])CC(=O)[O-])N(CC(=O)[O-])CC(=O)[O-])cc1.[Gd+3].[H+].[H+] [gadoxetate, Gadoxetate]","kbh, new value in unified units","rMrp2; rat, in vivo",1.19 mL/min
same,"kbh, original value","rMrp2; rat, in vivo",0.14 mL/ min/ mL tissue volume

# From publication PMC10057977, “Use of In Vivo Imaging and Physiologically-Based Kinetic Modelling to Predict Hepatic Transporter Mediated Drug–Drug Interactions in Rats” (Pharmaceutics, 2023)
